In USRE37999E1, “20-(B)-20,25-dihydroperoxy-3β-hydroxycholest-5-ene and 20-(S)-20,25-dihydroperoxy-3β-hydroxycholest-5-ene” (Iowa State University Research Foundation, Inc., priority 1988, dated 2003):
Several values for one entry are separate records, joined by “and”; a condition that tells them apart may be missing. Identical values can stand only once.

Assays:
[1] = system: mouse peritoneal macrophages; test: Time course of incorporation of 3H-oleate into cholesterol esters by mouse peritoneal macrophages; type: cell-based; conditions: for inhibition of 3H-oleate incorporation into cholesterol esters (in words): 50 μM compound A or 25 μM compound B
Description: In a further experiment, the time course of incorporation of ^3H-oleate into the same cholesterol esters by mouse peritoneal macrophages was studied. Mouse peritoneal macrophages were gorwn in M199 medium containing 2.5% fetal calf serum and acetyl-LDL (25 μg protein/ml) for 18 hr at 37° C. The medium was then replaced by M199 containing 2.5% fetal calf serum; ^3H-oleate with 50 μM compound A or 25 μM compound B or no hydroperoxide. At the time intervals indicated, the medium was aspirated and the cellular lipid was extracted and analyzed by thin-layer chromatography.

[2] = system: acyl-Coenzyme-A:cholesterol acyltransferase (ACAT); test: Inhibition of ACAT in mouse liver microsomes (14C-oleoyl-Coenzyme A); type: biochemical; conditions: 15 min pretreatment
Description: In another experiment, the inhibition of ⟦deleted by reissue: acrylCoenzyme-A:cholesterol ⟧ acyl-Coenzyme-A:cholesterol acyltransferase (ACAT) by cholesterol hydroperoxides, compounds A and B was used. Mouse liver microsomes (140 μg protein/assay) were treated with various concentrations of compounds A and B for 15 min prior to starting the assay by the addition of ^14C-oleoyl-Coenzyme A (41 μM, 0.068 μCi/assay). The reaction was carried on at 37° C. for exactly 5 min. then terminated by the addition of chloroform and methanol. The cellular lipids were extracted and separated by thin-layer chromatography.

[3] = system: mouse peritoneal macrophages; test: Esterification of cholesterol in mouse peritoneal macrophages (3H-oleate incorporation into cholesteryl ester); type: cell-based; conditions: 15 min preincubation
Description: The effects of cholesterol hydroperoxides on the esterification of cholesterol in mouse peritoneal macrophages was tested as follows:
Monolayers of mouse peritoneal macrophages were pretreated with various concentration of ⟦deleted by reissue: 20-(S)-hydroperoxy-cholest-5-ene-3β,25-diol hydroxycholesterol (A) or 20-(R)-hydroperoxycholest-5-ene-3β,25 diol (B) ⟧ 20-(S)-20,25-dihydroperoxy-3β-hydroxycholest-5-ene-(A) or 20-(R)-20,25-dihydroperoxy-3β-hydroxycholest-5-ene (B) at 37° C. After 15 min preincubation, medium M199 providing 2.5% fetal calf serum, acetyl-LDL (25 μg protein/ml) and ^3H-oleate (0.25 μCi/ml) was added to the culture dishes. After 6 hr of incubation with 5% CO2 at 37° C. the cellular lipids were extracted. This layer chromatography was used to separate cholesteryl ester from other lipid classes before the radioactivity was determined. The activities reported have been corrected for losses during chromatography and elution of the thin-layer plates.

[4] = biological target: calmodulin (Homo sapiens, UniProt P0DP23); test: Inhibition of calmodulin activity (method of Leung et al. 1984); type: biochemical
Description: The inhibition of calmodulin activity by A and B were measured using the method described by Leung et al. (1984) and the results are shown in Table 1.
In still another experiment, inhibition of calmodulin by the same cholesterol hydroperoxides was tested. The calmodulin inhibition was assayed as described by Leung et al. (J. Biol. Chem., 259:2742-2747, 1984).

[5] = system: rabbits fed an atherogenic diet; conditions: cited from earlier work
[6] = 2.5 μM, 5 min reaction at 37° C
[7] = 2.5 μM hydroperoxide, 6 hr incubation with acetyl-LDL and 3H-oleate
[8] = 5 μM hydroperoxide, 6 hr incubation
[9] = 10 μM hydroperoxide, 6 hr incubation
[10] = 25 μM hydroperoxide, 6 hr incubation
[11] = 50 μM hydroperoxide, 6 hr incubation
[12] = 75 μM hydroperoxide, 6 hr incubation
[13] = 100 μM hydroperoxide, 6 hr incubation
[14] = 0.01 μg compound preincubated with 0.3 units calmodulin, assay 30 C, 30 min
[15] = 0.1 μg compound preincubated with 0.3 units calmodulin, assay 30 C, 30 min
[16] = 1 μg compound preincubated with 0.3 units calmodulin, assay 30 C, 30 min
[17] = Table 9, EGTA, amount not given
[18] = Table 1, Control + EDTA, amount not given

Row | Compound | inhibition of 3H-oleate incorporation into cholesterol esters (in words) ([1]; 5 min) | Counts per minute in cholesterol esters [2, 6] | Counts per minute in cholesterol esters ([2]; 5 μM, 5 min reaction) | Counts per minute in cholesterol esters ([2]; 10 μM, 5 min reaction) | Counts per minute in cholesterol esters ([2]; 16.7 μM, 5 min reaction) | Counts per minute in cholesterol esters ([2]; 25 μM, 5 min reaction) | Counts per minute in cholesterol esters ([2]; 33.3 μM, 5 min reaction) | Counts per minute in cholesterol esters ([2]; 50 μM, 5 min reaction) | Counts per minute in cholesterol esters ([2]; 100 μM, 5 min reaction) | Counts per min 3H incorporated into cholesteryl ester [3, 7] | Counts per min 3H incorporated into cholesteryl ester [3, 8] | Counts per min 3H incorporated into cholesteryl ester [3, 9] | Counts per min 3H incorporated into cholesteryl ester [3, 10] | Counts per min 3H incorporated into cholesteryl ester [3, 11] | Counts per min 3H incorporated into cholesteryl ester [3, 12] | Counts per min 3H incorporated into cholesteryl ester [3, 13] | % inhibition [4, 14] | nmole P produced^i [4, 14] | % inhibition [4, 15] | nmole P produced^i [4, 15] | further results
1 | CC(C)(CCC[C@](C)(OO)[C@H]1CC[C@H]2[C@@H]3CC=C4C[C@@H](O)CC[C@]4(C)[C@H]3CC[C@@]21C)OO [Compound A, 20-(S)-20,25-dihydroperoxy-3β-hydroxycholest-5-ene] | apparent at the shortest time samples | 4702 Counts per minute and 4651 Counts per minute | 4109 Counts per minute and 3420 Counts per minute | 3033 Counts per minute and 5422 Counts per minute | 1643 Counts per minute and 1206 Counts per minute | 1121 Counts per minute and 652 Counts per minute | 841 Counts per minute and 1141 Counts per minute | 632 Counts per minute and 573 Counts per minute | 304 Counts per minute and 297 Counts per minute | 55816 Counts per min and 47673 Counts per min | 59136 Counts per min | 33700 Counts per min and 29618 Counts per min | 14510 Counts per min and 17621 Counts per min | 6059 Counts per min | 5074 Counts per min and 5047 Counts per min | 2830 Counts per min and 3970 Counts per min | 28% | 22.9 nmol | 68% | 16.1 nmol | Counts per minute in cholesterol ester ([1]; 50 μM compound A, 5 min): 2627 Counts per minute and 1994 Counts per minute; Counts per minute in cholesterol ester ([1]; 50 μM compound A, 10 min): 2462 Counts per minute and 3092 Counts per minute; Counts per minute in cholesterol ester ([1]; 50 μM compound A, 20 min): 5223 Counts per minute and 6049 Counts per minute; Counts per minute in cholesterol ester ([1]; 50 μM compound A, 30 min): 4007 Counts per minute and 2937 Counts per minute; Counts per minute in cholesterol ester ([1]; 50 μM compound A, 60 min): 4088 Counts per minute and 5295 Counts per minute; Counts per minute in cholesterol ester ([1]; 50 μM compound A, 120 min): 7269 Counts per minute and 10036 Counts per minute; Counts per minute in cholesterol ester ([1]; 50 μM compound A, 240 min): 19627 Counts per minute and 17564 Counts per minute; Counts per minute in cholesterol esters ([2]; 20 μM, 5 min reaction): 1652 Counts per minute and 1708 Counts per minute; % inhibition [4, 16]: 92%; nmole P produced^i [4, 16]: 12.1 nmol; % inhibition ([4]; Table 9, 0.01 μg): 28%; nmoles phosphate produced ([4]; Table 9, 0.01 μg): 22.9 nmol; % inhibition ([4]; Table 9, 0.1 μg): 68%; nmoles phosphate produced ([4]; Table 9, 0.1 μg): 16.1 nmol; % inhibition ([4]; Table 9, 1 μg): 92%; nmoles phosphate produced ([4]; Table 9, 1 μg): 12.1 nmol
2 | CC(C)(CCC[C@@](C)(OO)[C@H]1CC[C@H]2[C@@H]3CC=C4C[C@@H](O)CC[C@]4(C)[C@H]3CC[C@@]21C)OO [Compound B, 20-(R)-20,25-dihydroperoxy-3β-hydroxycholest-5-ene] | apparent at the shortest time samples | 4557 Counts per minute and 3518 Counts per minute | 1786 Counts per minute and 2336 Counts per minute | 2499 Counts per minute and 1896 Counts per minute | 920 Counts per minute and 964 Counts per minute | 500 Counts per minute and 720 Counts per minute | 429 Counts per minute and 563 Counts per minute | 315 Counts per minute and 294 Counts per minute | 131 Counts per minute and 244 Counts per minute | 41574 Counts per min and 34918 Counts per min | 32751 Counts per min | 25140 Counts per min and 16252 Counts per min | 7752 Counts per min and 6232 Counts per min | 4073 Counts per min | 3177 Counts per min and 3385 Counts per min | 4427 Counts per min and 2401 Counts per min | 4% | 26.9 nmol | 61% | 17.3 nmol | Counts per minute in cholesterol ester ([1]; 25 μM compound B, 5 min): 2218 Counts per minute and 1256 Counts per minute; Counts per minute in cholesterol ester ([1]; 25 μM compound B, 10 min): 2560 Counts per minute and 2019 Counts per minute; Counts per minute in cholesterol ester ([1]; 25 μM compound B, 20 min): 3245 Counts per minute and 4788 Counts per minute; Counts per minute in cholesterol ester ([1]; 25 μM compound B, 30 min): 3202 Counts per minute and 2943 Counts per minute; Counts per minute in cholesterol ester ([1]; 25 μM compound B, 60 min): 5054 Counts per minute and 7341 Counts per minute; Counts per minute in cholesterol ester ([1]; 25 μM compound B, 120 min): 7534 Counts per minute and 9160 Counts per minute; Counts per minute in cholesterol ester ([1]; 25 μM compound B, 240 min): 18532 Counts per minute and 15819 Counts per minute; % inhibition [4, 16]: 81%; nmole P produced^i [4, 16]: 13.8 nmol; % inhibition ([4]; Table 9, 0.001 μg): 4%; nmoles phosphate produced ([4]; Table 9, 0.001 μg): 26.9 nmol; % inhibition ([4]; Table 9, 0.1 μg): 61%; nmoles phosphate produced ([4]; Table 9, 0.1 μg): 17.3 nmol; % inhibition ([4]; Table 9, 1 μg): 81%; nmoles phosphate produced ([4]; Table 9, 1 μg): 13.8 nmol
3 | O=C(O)CN(CCOCCOCCN(CC(=O)O)CC(=O)O)CC(=O)O [EGTA, reference compound] |  |  |  |  |  |  |  |  |  |  |  |  |  |  |  |  |  |  |  |  | % inhibition [4, 17]: 100%; nmoles phosphate produced [4, 17]: 10.7 nmol
4 | CN(C)CCCN1c2ccccc2Sc2ccc(Cl)cc21 [chlorpromazine] |  |  |  |  |  |  |  |  |  |  |  |  |  |  |  |  |  |  |  |  | blood cholesterol [5]: without lowering of blood cholesterol; development of atherosclerotic lesions [5]: reduced the development of such lesions
5 | O=C(O)CN(CCN(CC(=O)O)CC(=O)O)CC(=O)O [EDTA, reference compound] |  |  |  |  |  |  |  |  |  |  |  |  |  |  |  |  |  |  |  |  | % inhibition [4, 18]: 100%; nmole P produced^i [4, 18]: 10.7 nmol
